Legend:
Plasmodium falciparum [1] = test: Antimalarial activity against Plasmodium falciparum D6 assessed as reduction in parasite growth preincubated for 48 hrs followed by addition of [3H]Hypoxanthine and measured after 48 hrs by [3H]Hypoxanthine incorporation assay; format: functional, organism-based
Plasmodium falciparum [2] = test: Antimalarial activity against chloroquine/ pyrimethamine-resitant Plasmodium falciparum W2 assessed as reduction in parasite growth preincubated for 48 hrs followed by addition of [3H]Hypoxanthine and measured after 48 hrs by [3H]Hypoxanthine incorporation assay; format: functional, organism-based
[3] = target: T1, Hypoxanthine-guanine phosphoribosyltransferase (Homo sapiens, UniProt P00492); test: Inhibition of human N-terminal His6-tagged HGPRT using Prib-PP as substrate by Hanes-plot based method
T1 sequence (P00492 whole entry): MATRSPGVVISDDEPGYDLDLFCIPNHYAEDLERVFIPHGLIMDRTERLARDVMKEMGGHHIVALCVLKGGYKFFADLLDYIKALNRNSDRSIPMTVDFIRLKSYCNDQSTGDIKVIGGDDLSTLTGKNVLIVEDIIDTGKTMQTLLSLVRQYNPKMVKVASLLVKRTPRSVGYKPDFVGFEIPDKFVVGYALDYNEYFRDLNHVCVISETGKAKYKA

[4] = Inhibition of Plasmodium falciparum N-terminal His6-tagged HGXPRT using Prib-PP as substrate by Hanes-plot based method
Plasmodium falciparum [5] = test: Antimalarial activity against synchronized Plasmodium falciparum K1 ring form infected in human erythrocytes assessed as reduction in parasite growth after 72 hrs by Hoechst 33258 staining based fluorescence assay; format: functional, organism-based; conditions: K1, 72 h
[6] = Inhibition of Plasmodium vivax HGPRT using Prib-PP as substrate by Hanes-plot based method
[7] = Inhibition of Plasmodium falciparum HGXPRT using Prib-PP as substrate by Hanes-plot based method
[8] = target: T1, Hypoxanthine-guanine phosphoribosyltransferase
Description: Inhibition of human HGPRT using Prib-PP as substrate by Hanes-plot based method

Plasmodium falciparum [9] = test: Antimalarial activity against multi drug-resistant Plasmodium falciparum K1 assessed as reduction in parasite growth [3H]Hypoxanthine incorporation assay; format: functional; conditions: read-out: ID50 (the source's name)
Plasmodium falciparum [10] = test: Antimalarial activity against Plasmodium falciparum FCQ-27 isolate infected in erythrocytes assessed as reduction in [G-3H]Hypoxanthine incorporation incubated for 24 hrs followed by addition of [G-3H]Hypoxanthine and measured after 18 to 20 hrs by scintillation counting method; format: functional
[11] = Inhibition of Plasmodium falciparum HGXPRT expressed in Escherichia coli BL21 (DE3) assessed as inhibitor constant for enzyme-inhibitor-substrate complex formation using [5'-14C]IMP as substrate by scintillation counting method
[12] = target: T2, Purine nucleoside phosphorylase (Homo sapiens, UniProt P00491)
T2 sequence (P00491 whole entry): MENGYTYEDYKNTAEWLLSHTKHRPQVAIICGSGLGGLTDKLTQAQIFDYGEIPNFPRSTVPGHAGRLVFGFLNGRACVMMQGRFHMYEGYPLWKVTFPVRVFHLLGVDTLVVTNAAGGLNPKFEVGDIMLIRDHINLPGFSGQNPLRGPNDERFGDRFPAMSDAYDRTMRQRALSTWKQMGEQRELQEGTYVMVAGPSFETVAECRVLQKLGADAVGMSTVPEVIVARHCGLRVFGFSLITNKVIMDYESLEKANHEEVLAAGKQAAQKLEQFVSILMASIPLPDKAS
Description: Inhibition of human PNP assessed as inhibitor constant for enzyme-inhibitor-substrate complex formation

[13] = target: T3, Purine nucleoside phosphorylase (Plasmodium falciparum, UniProt Q8T9Z7)
T3 sequence (Q8T9Z7 whole entry): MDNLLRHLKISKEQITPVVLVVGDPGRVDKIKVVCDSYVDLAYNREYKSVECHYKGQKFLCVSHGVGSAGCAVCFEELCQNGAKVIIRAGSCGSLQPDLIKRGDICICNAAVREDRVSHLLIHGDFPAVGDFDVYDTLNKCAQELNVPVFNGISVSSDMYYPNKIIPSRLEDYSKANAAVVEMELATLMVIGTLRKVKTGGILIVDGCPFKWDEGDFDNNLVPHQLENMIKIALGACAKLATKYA
Description: Inhibition of Plasmodium falciparum His-tagged PNP assessed as inhibitor constant for enzyme-inhibitor-substrate complex formation

Plasmodium falciparum [14] = test: Antimalarial activity against Plasmodium falciparum; format: functional; conditions: read-out: ID50 (the source's name)
Plasmodium falciparum [15] = test: microbe, parasite or virus in culture; conditions: 3D7
Description: Antimalarial activity against Plasmodium falciparum 3D7 infected in human erythrocytes assessed as reduction in [3H]ethanolamine incorporation incubated for 18 hrs followed by addition of [3H]ethanolamine and measured after 48 hrs by scintillation counting method

[16] = target: T2, Purine nucleoside phosphorylase; test: Inhibition of human PNP expressed in Escherichia coli assessed as reduction in uric acid formation by spectrophotometric method
[17] = substrate: O=c1[nH]cnc2c1ncn2[C@@H]1O[C@H](CO)[C@@H](O)[C@H]1O; test: Binding affinity to Plasmodium falciparum His-tagged PNP assessed as catalytic rate by measuring uric acid formation
[18] = substrate: O=c1[nH]cnc2c1ncn2[C@@H]1O[C@H](CO)[C@@H](O)[C@H]1O; test: Binding affinity to human PNP assessed as catalytic rate by measuring uric acid formation

Q: For `CCOC(=O)[C@H](Cc1ccccc1)NP(N)(=O)CCO[C@H](CO)Cn1cnc2c(=O)[nH]c(N)nc21` (some centres not stated), which IC50 (Plasmodium falciparum [1]) is on record?
A: > 250 µM

Q: And the IC50 (Plasmodium falciparum [2])?
A: > 250 µM

Q: What does the source list for `Nc1nc2c(nc(Br)n2C[C@@H](CO)OCCP(=O)(O)O)c(=O)[nH]1`?
A: Ki [3]: 13 µM; Ki [4]: > 30 µM

Q: With `Nc1ncnc2c1ncn2CCOCP(=O)(O)O` [ADEFOVIR] as the molecule, how does the IC50 (Plasmodium falciparum [5]) read?
A: > 250 µM

Q: With `O=c1[nH]cnc2c1ncn2C[C@H](CO)n1cc(P(=O)(O)O)nn1` as the molecule, how does the Ki [6] read?
A: > 100 µM

Q: What about the Ki [7] of the same molecule?
A: 3 µM

Q: And the Ki [8]?
A: 8 µM

Q: For `Nc1nc2c(ncn2[C@H]2CCN(C(=O)CP(=O)(O)O)C2)c(=O)[nH]1`, which Ki [6] is on record?
A: 2600 µM

Q: What about the Ki [7] of the same molecule?
A: 400 µM

Q: What about the Ki [8] of the same molecule?
A: 73000 µM

Q: For `Nc1nc(SCc2ccc([N+](=O)[O-])cc2)c2ncn([C@@H]3O[C@H](CO)[C@@H](O)[C@H]3O)c2n1`, which IC50 (Plasmodium falciparum [9]) is on record?
A: 4.5 µM

Q: What does the source list for `CCOC(=O)[C@H](Cc1ccccc1)NP(=O)(CCO[C@@H](Cn1cnc2c(=O)[nH]c(N)nc21)C(=O)OC)N[C@@H](Cc1ccccc1)C(=O)OCC`?
A: IC50 (Plasmodium falciparum [1]): 50 µM; IC50 (Plasmodium falciparum [2]): 50 µM

Q: For `O=C(CCP(=O)(O)O)N1C[C@@H](n2cnc3c(O)ncnc32)[C@H](OC[C@@H](O)P(=O)(O)O)C1`, which Ki [6] is on record?
A: 0.006 µM

Q: And the Ki [7]?
A: 0.002 µM

Q: For `Nc1nc(N)c2ncn(C[C@H](CO)OCP(=O)(O)O)c2n1`, which IC50 (Plasmodium falciparum [5]) is on record?
A: 15 µM

Q: What does the source list for `CCOC(=O)[C@H](Cc1ccccc1)NP(N)(=O)CCO[C@H](CO)Cn1cnc2c(=O)[nH]cnc21` (some centres not stated)?
A: IC50 (Plasmodium falciparum [1]): > 250 µM; IC50 (Plasmodium falciparum [2]): > 250 µM

Q: Which IC37 (Plasmodium falciparum [10]) does the source give for `CNc1ncnc2c1ncn2[C@H]1C[C@H](O)[C@@H](CO)O1` here?
A: 10 µM

Q: For `CCOC(=O)[C@H](Cc1ccccc1)NP(=O)(CCO[C@H](CO)Cn1cnc2c(=O)[nH]c(N)nc21)N[C@@H](Cc1ccccc1)C(=O)OCC`, which IC50 (Plasmodium falciparum [1]) is on record?
A: 22 to 70 µM

Q: And the IC50 (Plasmodium falciparum [2])?
A: 22 to 70 µM

Q: For `Nc1nccc2c1ncn2C[C@@H](CO)OCP(=O)(O)O`, which IC50 (Plasmodium falciparum [5]) is on record?
A: 0.29 µM

Q: For `O=c1[nH]cnc2c([C@@H]3N[C@H](COP(=O)(O)O)[C@@H](O)[C@H]3O)c[nH]c12`, which Ki [11] is on record?
A: 0.001 µM

Q: With `Nc1nc2c([C@@H]3N[C@H](CO)[C@@H](O)[C@H]3O)c[nH]c2c(=O)[nH]1` as the molecule, how does the Ki [12] read?
A: 0.029 µM

Q: What about the Ki [13] of the same molecule?
A: 0.0009 µM

Q: For `Nc1nc2c(ncn2C[C@H](CO)n2cc(P(=O)(O)O)nn2)c(=O)[nH]1`, which Ki [6] is on record?
A: 1 to 6 µM

Q: And the Ki [7]?
A: 1 to 6 µM

Q: What about the Ki [8] of the same molecule?
A: 0.1 µM

Q: For `NC(=O)c1cn([C@@H]2O[C@H](CO)[C@@H](O)[C@H]2O)c2ncnc(N)c12` [SANGIVAMYCIN], which IC50 (Plasmodium falciparum [14]) is on record?
A: 25 µM

Q: And the IC37 (Plasmodium falciparum [10])?
A: 0.3 µM

Q: Which IC50 (Plasmodium falciparum [15]) does the source give for `CSC[C@H]1N[C@@H](c2c[nH]c3c(=O)[nH]cnc23)[C@H](O)[C@@H]1O` here?
A: 0.05 µM

Q: And the Ki [16]?
A: 0.303 µM

Q: Which Ki [7] does the source give for `O=c1[nH]c(=O)c2ncn(C[C@H](CO)n3cc(P(=O)(O)O)nn3)c2[nH]1` here?
A: 2 µM

Q: What about the Ki [8] of the same molecule?
A: > 500 µM

B1: Purine nucleoside phosphorylase (Plasmodium falciparum), Q8T9Z7 (protein)
chain: MDNLLRHLKISKEQITPVVLVVGDPGRVDKIKVVCDSYVDLAYNREYKSVECHYKGQKFLCVSHGVGSAGCAVCFEELCQNGAKVIIRAGSCGSLQPDLIKRGDICICNAAVREDRVSHLLIHGDFPAVGDFDVYDTLNKCAQELNVPVFNGISVSSDMYYPNKIIPSRLEDYSKANAAVVEMELATLMVIGTLRKVKTGGILIVDGCPFKWDEGDFDNNLVPHQLENMIKIALGACAKLATKYA
Q: With B1 as the molecule, how does the kcat [17] read?
A: 0.34 s⁻¹

B2: Purine nucleoside phosphorylase (Homo sapiens), P00491 (protein)
chain: MENGYTYEDYKNTAEWLLSHTKHRPQVAIICGSGLGGLTDKLTQAQIFDYGEIPNFPRSTVPGHAGRLVFGFLNGRACVMMQGRFHMYEGYPLWKVTFPVRVFHLLGVDTLVVTNAAGGLNPKFEVGDIMLIRDHINLPGFSGQNPLRGPNDERFGDRFPAMSDAYDRTMRQRALSTWKQMGEQRELQEGTYVMVAGPSFETVAECRVLQKLGADAVGMSTVPEVIVARHCGLRVFGFSLITNKVIMDYESLEKANHEEVLAAGKQAAQKLEQFVSILMASIPLPDKAS
Q: For B2, which kcat [18] is on record?
A: 56 s⁻¹
